Assay results from patent US10413529B2, “Methods of inhibiting cataracts and presbyopia” (UNIVERSITY OF MASSACHUSETTS, priority 2013, dated 2019).
Several values for one entry are separate records, joined by “and”; a condition that tells them apart may be missing. Equal entries are not always repeated.

What was measured:
γ-crystallin [1] = experiment: DLS, aggregation of γ-crystallin (stated for γD and γS together); type: biochemical; settings: dilute solution, 22° and 37° C.
Method: Scattering intensity was measured at angles between 30° and 90° at 5° intervals, corresponding to a scattering wave vector (q) range between 8.41×10^6 and 2.30×10^7 m^−1. The scattering wave vector is defined as q=4πn sin (θ/2)/λ, where θ is the scattering angle, and λ=514.5, the wavelength of the argon laser in vacuum, and n is 1.33, the refractive index of water. The temperature of the sample was held at constant temperature of 4 to 37±0.1° C. by a circulating water bath.
The correlation function was analyzed using CONTIN analysis to calculate lag times for the correlation functions at measured angles. The peaks represent the diffusive mode of the proteins. The delay times (τ) were converted to Γ and graphed versus q^2. The slope of the fitted line is the diffusion coefficient (D). The lines are fitted such that the intercept is zero because a non-zero value of q=0 is unphysical. The Γ versus q^2 plots were linear with r^2 values of 0.95 or greater.
All solutions were filtered with 0.22 μm hydrophobic PVDF membranes (Fisher Scientific) into 10 mm diameter borosilicate glass tubes and sealed. Solutions were allowed to equilibrate for thirty minutes prior to measuring light scattering.
γ-crystallins were subjected to a variety of experimental conditions, including a range of pHs (5, 6, 7, 8, 9, 10, 11), concentrations of KCl (100 mM, 150 mM, 300 mM, 500 mM, 1000 mM) and temperature (4.5° C., 22° C., 37° C.). The pH and salt concentration were adjusted via overnight dialysis at 4° C. and their final concentration adjusted to 1.0 g/L.
It had been hypothesized that disulfide bonds might mediate the observed γ-crystallin aggregates. The DLS of the γ-crystallin proteins was also measured in 5 mM DTT, and in the presence of 1.0 g/L α-crystallin. […] Thus, this hypothesis was incorrect.
Further, the synthesized α-crystallin proteins were mixed with γ-crystallin proteins to determine if the chaperoning ability of α-crystallin disrupts the γ-crystallin aggregates. The α-A and α-B crystallins were each individually mixed with γD- or γS-crystallin in a molar ratio of 3:1, respectively, mimicking the ratio found in the human eye lens. All solutions were allowed to equilibrate for an hour at 4° C.

γ-crystallin [2] = experiment: Circular dichroism of modified γ-crystallin (secondary structure); type: biochemical; settings: 0.5 mg/mL, 22° C., versus native protein
Method: Crystallin samples were dialyzed overnight into 10 mM Na2HPO4/NaH2PO4 buffer pH 6.8 and measured at a concentration of 0.5 mg/mL. CD spectra were measured on a Jasco J715 spectropolarimeter at 22° C. using a quartz cell of 1 mm path length.

[3] = tested on: human corneal epithelial cells (EpiOcular™ tissue); experiment: Trans-epithelial transport across epithelium construct; type: in vitro ADME
Method: The transport of the CAPEG4 across an epithelium construct was studied. The epithelium is the outer layer of the cornea and transport across the epithelium has proven to be challenging.
Specifically, the CAPEG4 construct in solution (10) was added to the top of an apparatus including a tissue culture plastic insert (11) containing culture medium (12) and an epithelium construct. (FIG. 19).

[4] = 16 mg/mL CAPEG4, blank insert (no tissue) at 15 min

NCCOCCOCCOCCOCCC(=O)O [CAPEG4]
aggregation of γ-crystallin modified with the agent (DLS) (γ-crystallin [1]): prevented aggregation of proteins | secondary structure of modified γ-crystallin (CD spectra) (γ-crystallin [2]): showed a similar trend to modifications made with PEG4 and PEG24 | Bottom Average ([3]; 1 mg/ml CAPEG4, 15 min): 13 mcg/well | Top Average ([3]; 1 mg/ml CAPEG4, 15 min): 449 mcg/well | Top mcg/well ([3]; 1 mg/ml CAPEG4, 15 min): 427 mcg/well and 472 mcg/well | Bottom % (stock) ([3]; 1 mg/ml CAPEG4, 15 min, stock 543 mcg/well): 2.4% | Bottom Average ([3]; 1 mg/ml CAPEG4, 30 min): 31 mcg/well | Bottom mcg/well ([3]; 1 mg/ml CAPEG4, 30 min): 26 mcg/well and 37 mcg/well | Top Average ([3]; 1 mg/ml CAPEG4, 30 min): 446 mcg/well | Top mcg/well ([3]; 1 mg/ml CAPEG4, 30 min): 448 mcg/well and 445 mcg/well | Bottom % (stock) ([3]; 1 mg/ml CAPEG4, 30 min, stock 543 mcg/well): 5.8% | Bottom Average ([3]; 1 mg/ml CAPEG4, 45 min): 8 mcg/well | Bottom mcg/well ([3]; 1 mg/ml CAPEG4, 45 min): 9 mcg/well and 8 mcg/well | Top Average ([3]; 1 mg/ml CAPEG4, 45 min): 443 mcg/well | Top mcg/well ([3]; 1 mg/ml CAPEG4, 45 min): 459 mcg/well and 428 mcg/well | Bottom % (stock) ([3]; 1 mg/ml CAPEG4, 45 min, stock 543 mcg/well): 1.5% | Bottom Average ([3]; 1 mg/ml CAPEG4, 60 min): 9 mcg/well | Bottom mcg/well ([3]; 1 mg/ml CAPEG4, 60 min): 8 mcg/well and 11 mcg/well | Top Average ([3]; 1 mg/ml CAPEG4, 60 min): 421 mcg/well | Top mcg/well ([3]; 1 mg/ml CAPEG4, 60 min): 454 mcg/well and 388 mcg/well | Bottom % (stock) ([3]; 1 mg/ml CAPEG4, 60 min, stock 543 mcg/well): 1.7% | Bottom Average ([3]; 1 mg/ml CAPEG4, 90 min): 31 mcg/well | Top Average ([3]; 1 mg/ml CAPEG4, 90 min): 463 mcg/well | Top mcg/well ([3]; 1 mg/ml CAPEG4, 90 min): 467 mcg/well and 459 mcg/well | Bottom % (stock) ([3]; 1 mg/ml CAPEG4, 90 min, stock 543 mcg/well): 5.7% | Bottom Average ([3]; 1 mg/ml CAPEG4, 120 min): 25 mcg/well | Bottom mcg/well ([3]; 1 mg/ml CAPEG4, 120 min): 21 mcg/well and 30 mcg/well | Top Average ([3]; 1 mg/ml CAPEG4, 120 min): 481 mcg/well | Top mcg/well ([3]; 1 mg/ml CAPEG4, 120 min): 453 mcg/well and 510 mcg/well | Bottom % (stock) ([3]; 1 mg/ml CAPEG4, 120 min, stock 543 mcg/well): 4.7% | Bottom Average ([3]; 1 mg/ml CAPEG4, Time 0 harvest): 3 mcg/well | Bottom mcg/well ([3]; 1 mg/ml CAPEG4, Time 0 harvest): 4 mcg/well and 3 mcg/well | Top Average ([3]; 1 mg/ml CAPEG4, Time 0 harvest): 450 mcg/well | Top mcg/well ([3]; 1 mg/ml CAPEG4, Time 0 harvest): 446 mcg/well and 453 mcg/well | Bottom % (stock) ([3]; 1 mg/ml CAPEG4, Time 0 harvest, stock 543 mcg/well): 0.6% | Bottom Average ([3]; 16 mg/mL CAPEG4, 15 min): 60 mcg/well | Bottom mcg/well ([3]; 16 mg/mL CAPEG4, 15 min): 58 mcg/well and 62 mcg/well | Top Average ([3]; 16 mg/mL CAPEG4, 15 min): 6375 mcg/well | Top mcg/well ([3]; 16 mg/mL CAPEG4, 15 min): 5842 mcg/well and 6908 mcg/well | Bottom % (stock) ([3]; 16 mg/mL CAPEG4, 15 min, stock 8186 mcg/well): 0.7% | Bottom Average ([3]; 16 mg/mL CAPEG4, 30 min): 99 mcg/well | Bottom mcg/well ([3]; 16 mg/mL CAPEG4, 30 min): 93 mcg/well and 105 mcg/well | Top Average ([3]; 16 mg/mL CAPEG4, 30 min): 6312 mcg/well | Top mcg/well ([3]; 16 mg/mL CAPEG4, 30 min): 6099 mcg/well and 6526 mcg/well | Bottom % (stock) ([3]; 16 mg/mL CAPEG4, 30 min, stock 8186 mcg/well): 1.2% | Bottom Average ([3]; 16 mg/mL CAPEG4, 45 min): 548 mcg/well | Bottom mcg/well ([3]; 16 mg/mL CAPEG4, 45 min): 677 mcg/well and 418 mcg/well | Top Average ([3]; 16 mg/mL CAPEG4, 45 min): 6335 mcg/well | Top mcg/well ([3]; 16 mg/mL CAPEG4, 45 min): 6313 mcg/well and 6356 mcg/well | Bottom % (stock) ([3]; 16 mg/mL CAPEG4, 45 min, stock 8186 mcg/well): 6.7% | Bottom Average ([3]; 16 mg/mL CAPEG4, 60 min): 149 mcg/well | Bottom mcg/well ([3]; 16 mg/mL CAPEG4, 60 min): 160 mcg/well and 139 mcg/well | Top Average ([3]; 16 mg/mL CAPEG4, 60 min): 6972 mcg/well | Top mcg/well ([3]; 16 mg/mL CAPEG4, 60 min): 6450 mcg/well and 7494 mcg/well | Bottom % (stock) ([3]; 16 mg/mL CAPEG4, 60 min, stock 8186 mcg/well): 1.8% | Bottom Average ([3]; 16 mg/mL CAPEG4, 90 min): 525 mcg/well | Bottom mcg/well ([3]; 16 mg/mL CAPEG4, 90 min): 525 mcg/well | Top Average ([3]; 16 mg/mL CAPEG4, 90 min): 6457 mcg/well | Top mcg/well ([3]; 16 mg/mL CAPEG4, 90 min): 6122 mcg/well and 6792 mcg/well | Bottom % (stock) ([3]; 16 mg/mL CAPEG4, 90 min, stock 8186 mcg/well): 6.4% | Bottom Average [3, 4]: 1837 mcg/well | Bottom mcg/well [3, 4]: 1837 mcg/well | Top Average [3, 4]: 7857 mcg/well | Top mcg/well [3, 4]: 7857 mcg/well | Bottom % (stock) ([3]; 16 mg/mL CAPEG4, blank insert (no tissue) at 15 min, stock 8186 mcg/well): 23%
